Measurements from ChEMBL document CHEMBL1121704, “Fluorinated retinoic acids and their analogues. 2. Synthesis and biological activity of aromatic 4-fluoro analogues” (1981).

Tests used:
Format in all cases: functional
Mus musculus [1] = species on record: Mus musculus; assay: Hypervitaminosis dose determined as a measure of toxicity
Mus musculus [2] = assay: In vivo anti-papilloma activity against chemically induced skin papillomas in mice at dose of 80(mg/kg)/day
Mus musculus [3] = assay: In vivo anti-papilloma activity against chemically induced skin papillomas in mice at dose of 20(mg/kg)/day
Mus musculus [4] = assay: In vivo anti-papilloma activity against chemically induced skin papillomas in mice at dose of 40 mg/kg/day
Mus musculus [5] = assay: In vivo anti-papilloma activity against chemically induced skin papillomas in mice at dose of 5(mg/kg)/day
Mus musculus [6] = assay: In vivo anti-papilloma activity against chemically induced skin papillomas in mice at dose of 10 mg/kg/day

SMILES | Dose (Mus musculus [1]) [mg/kg/day] | Antipapilloma activity (Mus musculus [2]) [%] | Antipapilloma activity (Mus musculus [3]) [%] | Antipapilloma activity (Mus musculus [4]) [%] | Antipapilloma activity (Mus musculus [5]) [%] | Antipapilloma activity (Mus musculus [6]) [%]
CCOC(=O)/C=C(C)/C(F)=C/C=C(C)/C=C/c1c(C)cc(C)c(Cl)c1C | >200 | -64 | -29 | -34 | – | –
CCOC(=O)/C=C(C)/C(F)=C/C=C(C)/C=C/c1c(Cl)cc(OC)c(C)c1Cl | 25 | – | – | – | -58 | –
CCOC(=O)/C=C(C)/C(F)=C/C=C(C)/C=C/c1c(C)cc(OC)c(C)c1Cl | 50 | – | -73 | – | – | –
CCOC(=O)/C=C(C)/C(F)=C/C=C(C)/C=C/c1c(C)cc(OC)c(C)c1C | 50 | -82 | -62 | -69 | -43 | -76
CCOC(=O)/C=C(C)/C(F)=C/C=C(C)/C=C/c1c(Cl)cc(OC)c(C)c1C | 50 | – | -59 | – | -41 | -60
CCOC(=O)/C=C(C)/C=C/C=C(C)/C=C/c1c(C)cc(OC)c(C)c1C [ETRETINATE] | 100 | -47 | -29 | -33 | – | 9
